We go through 47 compounds from US8642774B2, “Compounds” (Boehringer Ingelheim International GmbH, priority 2011, dated 2014).

Each structure is given as a SMILES string. pEC50: −log10 of the molar value.

For the assay, the target named is T1, human recombinant mGluR5 (Homo sapiens, UniProt P41594).
T1 construct: expressed in transfected cells; host or cells: HEK 293 cell line, cultured with tetracycline, hygromycin and geneticin; tetracycline is withdrawn 3-7 days before the assay
T1 sequence (P41594 21-1212): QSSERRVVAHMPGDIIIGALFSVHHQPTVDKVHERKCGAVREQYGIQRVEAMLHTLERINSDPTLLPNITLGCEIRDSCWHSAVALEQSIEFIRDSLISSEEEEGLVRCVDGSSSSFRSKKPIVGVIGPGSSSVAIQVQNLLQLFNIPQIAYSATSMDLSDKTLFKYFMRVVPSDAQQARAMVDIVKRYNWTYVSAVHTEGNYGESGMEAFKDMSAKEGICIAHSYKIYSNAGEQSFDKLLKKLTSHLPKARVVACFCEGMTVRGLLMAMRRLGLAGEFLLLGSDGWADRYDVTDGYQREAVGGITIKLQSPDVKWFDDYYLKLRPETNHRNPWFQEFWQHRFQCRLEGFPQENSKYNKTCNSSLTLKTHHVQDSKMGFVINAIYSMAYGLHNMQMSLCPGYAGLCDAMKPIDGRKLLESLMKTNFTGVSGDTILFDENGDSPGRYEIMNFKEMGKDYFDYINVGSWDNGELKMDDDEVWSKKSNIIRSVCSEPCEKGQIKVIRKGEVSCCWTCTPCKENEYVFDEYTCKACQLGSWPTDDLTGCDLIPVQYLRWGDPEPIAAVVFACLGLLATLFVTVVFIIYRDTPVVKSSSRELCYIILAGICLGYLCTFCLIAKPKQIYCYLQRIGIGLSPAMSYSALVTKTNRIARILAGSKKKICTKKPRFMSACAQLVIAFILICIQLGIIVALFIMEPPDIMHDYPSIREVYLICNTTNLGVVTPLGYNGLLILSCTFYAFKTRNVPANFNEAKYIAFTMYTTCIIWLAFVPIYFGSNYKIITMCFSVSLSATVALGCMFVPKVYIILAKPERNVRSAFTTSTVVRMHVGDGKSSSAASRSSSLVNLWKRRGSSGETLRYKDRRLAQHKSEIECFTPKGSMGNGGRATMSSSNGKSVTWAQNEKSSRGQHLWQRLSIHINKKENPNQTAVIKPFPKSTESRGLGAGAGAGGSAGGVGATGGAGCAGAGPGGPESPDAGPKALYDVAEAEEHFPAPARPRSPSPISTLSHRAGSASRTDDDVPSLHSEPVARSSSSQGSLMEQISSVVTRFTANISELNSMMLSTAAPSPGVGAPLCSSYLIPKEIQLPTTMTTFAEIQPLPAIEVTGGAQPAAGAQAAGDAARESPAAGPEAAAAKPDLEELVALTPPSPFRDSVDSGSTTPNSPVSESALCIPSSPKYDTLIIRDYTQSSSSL
The assay is described as follows: positive modulation of mGluR5, calcium based FLIPR assay. As to conditions: EC50 of the modulation; HEK 293 cell line expressing human recombinant mGluR5; peak height of Ca fluorescence signal after glutamate at approx. 5% basal stimulation; read-out: EC50. The assay is classed as cell-based. The method, then:
The positive modulation of mGluR5 is measured in a HEK 293 cell line expressing human recombinant mGluR5 and is detected with calcium based FLIPR assay. The cells are cultured with DMEM supplemented with 10% FCS, 2 μg/mL tetracycline, 100 μg/mL hygromycin and 500 μg/mL gneticin. The cell culture media is exchanged for tetracycline-free cell culture media 3-7 days before the assay. One day before the assay the cell culture medium is exchanged to DMEM without glutamine and phenol red and supplemented with 10% FCS, 100 μg/mL hygromycin and 500 μg/mL geneticin. On the assay day, the medium of the subconfluent cultures is removed and the cells are detached by addition of 2.5 ml EDTA (0.02%) per 175 cm2 culture flask for 1 minute. The cells are resuspend in Ringer solution (140 mM NaCl, 5 mM KCl, 2.5 mM CaCl2, 1.5 mM MgCl2, 5 mM Glucose, 10 mM Hepes; adjusted to pH 7.4 with NaOH), pooled and Ringer solution added to adjust the volume to 50 mL. The cell suspension is centrifuged for 5 min at 1500 U/min (425 g). The supernatant is removed and the cells washed a second time with 50 ml fresh Ringer solution and centrifuged again as before. The supernatant is again removed and the pellet resuspended in Ringer solution to 1,000,000 cells/ml (1×10^6 cells/mL). The cells are plated onto BD BioCoat Poly-D-Lysine 384 well plates (20.000 cells/well; 20 μl/well). The lid covered plates are then incubated until use at 37° C./10% CO2. For dye loading, 20 μl of Calcium-4 assay kit solution (prepared according to the manufacturer's description in Ringer solution) are added to the cells and the plates are incubated for 80 min 37° C. and then 10 min at room temperature. • Controls, Compound dilution and assay execution: • Each assay plate contained wells with “high” and “low” controls:
Low controls 1% DMSO/ringer solution+basal glutamate activation (defined as 100% CTL).
High controls 10 μM CDPPB+basal glutamate activation (defined as 200% CTL).
Test compounds are dissolved and diluted in DMSO to 100-fold the desired concentrations. In a second step, the compounds are diluted in Ringer solution such that the compounds are 4-fold more concentrated than the desired final assay concentration. The final DMSO concentration was 1%.
20 μl of each compound solution are then transferred to the assay plate and the Ca2+ kinetic is measured to determine any intrinsic compound activity. After 5 min incubation in the FLIPR device, the second stimulation with 20 μl of glutamate in Ringer solution (glutamate concentration adjusted to approximately 5% basal stimulation of the maximal possible glutamate effect) is added and the kinetic Ca2+ response of the wells was measured for the modulation effect.
The peak height of the Ca release related fluorescence signal (9-66) is used for the EC50. The EC50 of the modulation is calculated over a nonlinear regression with GraphPad Prism (Table 1).
The pEC50 is the EC50 on a negative log10 scale, so that one unit is a factor of ten. Take `O=C(Cn1nc(-c2ccc(F)cc2)nc1-c1ccc(F)cc1)N1CCC(Oc2ccccn2)CC1` [Example 7.03.009.]: the pEC50 was 6.09.
Take `Cc1cc(-c2nc(CCC(C)C)n(CC(=O)N3CCc4nc(N)sc4CC3)n2)ccc1F` [Example 7.03.112.]: the pEC50 is 6.83.
For the compound `COC(=O)c1ccc2c(c1)CCN(C(=O)Cn1nc(-c3ccc(F)c(C)c3)nc1-c1ccccc1)CC2` [Example 7.02.79.], the pEC50 is 7.27.
On to `Nc1nc2c(s1)CCN(C(=O)Cn1nc(-c3ccccc3)nc1-c1ccccc1)CC2` [Example 7.03.049.], for which the pEC50 was 5.84.
As to `CCC(C)c1nc(-c2ccc(F)c(C)c2)nn1CC(=O)N1CCc2nc(N)sc2CC1` (centres unmarked) [Example 7.03.085.], the pEC50 was 6.19.
The result for `CCCCc1nc(-c2ccc(F)c(C)c2)nn1CC(=O)N1Cc2nc(C)sc2C1` [Example 7.03.101.] reads 6.42; that for `Cc1nc2c(s1)CCN(C(=O)Cn1nc(-c3ccc(F)c(C)c3)nc1-c1ccccc1)CC2` [Example 7.03.063.], 7.22; that for `CCCCCc1nc(-c2ccc(F)c(C)c2)nn1CC(=O)N1Cc2nc(C)sc2C1` [Example 7.03.108.], 6.70.
Regarding `O=C(Cn1nc(-c2ccc(F)cc2)nc1-c1ccc(F)cc1)N1CCN(Cc2ccccc2)C(=O)C1` [Example 7.03.007.], the pEC50 was 5.86.
As for `O=C(Cn1nc(-c2ccc(F)cc2)nc1-c1ccc(F)cc1)N1CCN(c2nnc(C(F)(F)F)s2)CC1` [Example 7.02.68.], the pEC50 is 6.70.
With `O=C(Cn1nc(-c2ccc(F)cc2)nc1-c1ccc(F)cc1)N1Cc2cn[nH]c2C1` [Example 7.02.04.], the pEC50 was 6.09.
With `O=C(Cn1nc(-c2ccc(F)cc2)nc1-c1ccc(F)cc1)N1CC(c2ccccn2)C1` [Example 7.02.72.], the pEC50 was 6.11.
Regarding `COc1cc2c(cc1OC)CN(C(=O)Cn1nc(-c3ccc(F)cc3)nc1-c1ccc(F)cc1)CC2` [Example 7.03.006.], the pEC50 is 5.78.
Consider `CCCCCc1nc(-c2ccc(F)c(C)c2)nn1CC(=O)N1Cc2nc(C)oc2C1` [Example 7.03.125], for which the pEC50 is 6.82.
With `CN1C(=O)N(C2CCN(C(=O)Cn3nc(-c4ccc(F)cc4)nc3-c3ccc(F)cc3)CC2)Cc2ccccc21` [Example 7.02.25.], the pEC50 was 5.73.
Regarding `O=C(Cn1nc(-c2ccc(F)cc2)nc1-c1ccc(F)cc1)N1CCC(c2ncc(Cl)cn2)CC1` [Example 7.02.50.], the pEC50 is 6.67.
The result for `CC1CN(c2ncccn2)CCN1C(=O)Cn1nc(-c2ccc(F)cc2)nc1-c1ccc(F)cc1` (centres unmarked) [Example 7.03.119.] reads 6.48; that for `Cc1nc2c(o1)CCN(C(=O)Cn1nc(-c3ccc(F)c(C)c3)nc1-c1ccccc1)C2` [Example 7.02.92.], 7.34; that for `Cc1cc(-c2nc(C(C)C)n(CC(=O)N3CC=C(c4ccccn4)CC3)n2)ccc1F` [Example 7.03.075.], 5.96.
For `O=C(Cn1nc(-c2ccc(F)cc2)nc1-c1ccc(F)cc1)N1CCC(c2nnc(-c3ccccc3)o2)CC1` [Example 7.03.008.] the value was 6.12; for `O=C(Cn1nc(-c2ccc(F)cc2)nc1-c1ccc(F)cc1)N1CCN(c2cc(F)ccn2)C(=O)C1` [Example 7.03.016.], 7.00; for `COc1cccc(N2CCN(C(=O)Cn3nc(-c4ccc(F)cc4)nc3-c3ccc(F)cc3)CC2=O)c1` [Example 7.01.03.], 6.55.
For the compound `CC(C)c1noc(C2CCN(C(=O)Cn3nc(-c4ccc(F)cc4)nc3-c3ccc(F)cc3)CC2)n1` [Example 7.02.03.], the pEC50 is 5.91.
For `Cc1nnc(C2CCN(C(=O)Cn3nc(-c4ccc(F)cc4)nc3-c3ccc(F)cc3)CC2)o1` [Example 7.02.59.] the value was 6.35; for `COc1ncc2c(n1)CCN(C(=O)Cn1nc(-c3ccc(F)cc3)nc1-c1ccc(F)cc1)C2` [Example 7.02.60.], 6.53.
For `O=C(Cn1nc(-c2ccc(F)cc2)nc1-c1ccc(F)cc1)N1CCc2ncsc2C1` [Example 7.02.43.] the value was 5.79; for `CC(C)c1nnc(N2CCN(C(=O)Cn3nc(-c4ccc(F)cc4)nc3-c3ccc(F)cc3)CC2)o1` [Example 7.03.043.], 6.86; for `COc1cc(C2CCN(C(=O)Cn3nc(-c4ccc(F)cc4)nc3-c3ccc(F)cc3)CC2)ncn1` [Example 7.03.026.], 6.01.
As to `COc1cc2c(cc1OC)CCN(C(=O)Cn1nc(-c3ccc(F)cc3)nc1-c1ccc(F)cc1)CC2` [Example 7.02.62.], the pEC50 is 6.51.
The result for `Cc1nc2c(o1)CCN(C(=O)Cn1nc(-c3ccc(F)c(C)c3)nc1-c1ccccc1)CC2` [Example 7.02.86.] reads 7.55.
Regarding `COc1ccc(-c2nc(-c3ccc(F)cc3)n(CC(=O)N3CCc4nc(N)sc4CC3)n2)cc1` [Example 7.03.055.], the pEC50 was 7.00.
For the compound `N#Cc1cccc(N2CCN(C(=O)Cn3nc(-c4ccc(F)cc4)nc3-c3ccc(F)cc3)CC2=O)c1` [Example 7.03.015.], the pEC50 is 6.52.
As to `O=C(Cn1nc(-c2ccc(F)cc2)nc1-c1ccc(F)cc1)N1CCc2ncnc(-c3ccccc3)c2CC1` [Example 7.02.37.], the pEC50 is 6.15.
On to `CCCc1nc(-c2ccc(F)c(C)c2)nn1CC(=O)N1CCc2nc(C)sc2CC1` [Example 7.03.070.], for which the pEC50 was 6.34.
`O=C(Cn1nc(-c2ccc(F)cc2)nc1-c1ccc(F)cc1)N1CCN(c2nccs2)CC1` [Example 7.03.048.]: the pEC50 is 7.06.
Consider `O=C(Cn1nc(-c2ccc(F)cc2)nc1-c1ccc(F)cc1)N1CCN(c2nccc3occc23)CC1` [Example 07.03.137.], for which the pEC50 is 6.47.
Regarding `Cc1nc2c(o1)CN(C(=O)Cn1nc(-c3ccc(F)c(C)c3)nc1-c1ccccc1)C2` [Example 7.03.123], the pEC50 is 7.51.
As to `O=C(Cn1nc(-c2ccc(F)cc2)nc1-c1ccc(F)cc1)N1CCC(Oc2ccc3c(c2)OCO3)CC1` [Example 7.02.30.], the negative-log EC50 (pEC50) was 6.03.
Regarding `COc1ccc(-c2nc(-c3ccc(F)cc3)n(CC(=O)N3CCc4nc(C)sc4CC3)n2)cc1` [Example 7.03.056.], the pEC50 was 7.20.
With `O=C(Cn1nc(-c2ccc(F)cc2)nc1-c1ccc(F)cc1)N1CCC(N2Cc3c(Cl)cccc3NC2=O)CC1` [Example 7.02.35.], the pEC50 is 5.85.
For the compound `Cc1nc2c(s1)CCN(C(=O)Cn1nc(-c3ccc(F)c(C)c3)nc1C1CCC(F)(F)CC1)CC2` [Example 7.03.097.], the pEC50 is 6.30.
Regarding `Cc1nc2c(o1)CN(C(=O)Cn1nc(-c3ccc(F)c(C)c3)nc1C1CCCCC1)CC2` [Example 7.03.059.], the pEC50 is 6.27.
In the case of `O=C(Cn1nc(-c2ccc(F)cc2)nc1-c1ccc(F)cc1)N1CCC(c2nccs2)CC1` [Example 7.02.18.], the pEC50 was 6.29.
The result for `Cc1nc2c(o1)CN(C(=O)Cn1nc(-c3ccc(F)c(C)c3)nc1-c1ccccc1)CC2` [Example 7.03.064.] reads 7.07.
`COc1cccc2c1CCN(C(=O)Cn1nc(-c3ccc(F)cc3)nc1-c1ccc(F)cc1)C2` [Example 7.02.08.]: the pEC50 is 6.18.
Consider `O=C(Cn1nc(-c2ccc(F)cc2)nc1-c1ccc(F)cc1)N1CCc2nc(C3CCCCC3)sc2CC1` [Example 7.03.032.], for which the pEC50 is 6.06.
For the compound `Cc1nc2c(s1)CCN(C(=O)Cn1nc(-c3ccc(F)c(C)c3)nc1CCC(C)C)CC2` [Example 7.03.114.], the pEC50 is 6.99.
